Reference: patent US20260133193A1, “COMPOSITIONS AND METHODS FOR TREATING INFLAMMATORY DISEASES” (University of Washington, priority 2018, published 2026)
“Also recorded” adds a separate entry of the source.

Legend:
Assay type in all cases: cell-based, human
FcgRIIA on neutrophils = assay: FcgRIIA shedding, flow cytometry of neutrophil cell surface FcgRs; conditions: flow cytometry
Source text: To determine the mechanism for the TLR-induced reduction in RNP-IC phagocytosis, we analyzed the neutrophil surface expression of FcgRs after exposure to TLR ligand. Neutrophils were activated with R848 and cell surface expression of FcgRs analyzed by flow cytometry. The results were presented as FcgR levels as compared to no R848 added (% of control). The experiment was repeated five (FcgRI), seven (FcgRIII), and twenty-five (FcgRIIA) times; combined results were compared using paired t test (FcgRIIA, P<0.0001; FcgRI, P=0.027; FcgRIII, P=0.0044). […] In this experiment, neutrophils were activated with the TLR7/8 agonist R848 and analyzed for FcgRIIA at different time-points and concentrations. The experiment was repeated four (concentration) and six (kinetics) times; combined results were compared using paired t test (30 min, P=0.0158; 60 min, P<0.0001; 120 min, P=0.0003; 0.125 μg/mL, P=0.0071; 0.25 μg/mL, P=0.0058; 0.5 μg/mL, P=0.0008; 1 μg/mL, P<0.0001; 2 μg/mL, P<0.0001). […] For these experiments, neutrophils were activated with TLR ligands (LPS, 1 μg/mL, PAM3CSK4 (5 μg/mL), CpG DNA (2 μg/mL), Loxoribine (0.1 mM), CL075 (2.5 μg/mL) or R848 (2 μg/mL)) for 60 minutes or 4 hours and analyzed for FcgRIIA, FcgRII or CD11b and CD66b cell surface expression by flow cytometry. Experiments were repeated six (LPS, P=0.0008), eight (CpG DNA, P=0.035; Loxoribine, P<0.0001, and CL075, P<0.0001), ten (PAM3CSK4, P<0.0001) and forty times (R848, P<0.0001); combined results were compared using paired t test. Additional experiments were repeated four and eight times; combined results were compared using paired t test (CD11b: R848, P<0.0001; LPS, P=0.0002; PAM, P<0.0001; CpG DNA, P<0.0001; CD66b: R848, P<0.0001; LPS, P<0.0001; PAM, P<0.0001; CpG DNA, P=0.014).
Neutrophils were activated by LPS (1 μg/mL), R848 (2 μg/mL), PAM3CSK4 (5 μg/mL), Loxoribine (0.1 mM), CL075 (2.5 μg/mL) or CpG DNA (2 μg/mL) for 30 minutes, followed by analysis of cell surface expression of CD32A (IV.3; Stemcell Technologies, FUN-2, BioLegend), CD16 (clone 3G8), CD64 (clone 10.1), and CD66b (all from BioLegend) by flow cytometry. For intracellular staining, neutrophils were fixed in 2% paraformaldehyde for 10 minutes, permeabilized with saponin (diluted 1:1000 in PBS) for 15 minutes and stained with anti-CD32A antibodies diluted 1:100. In some experiments, neutrophils were incubated with inhibitors (DPI (25 μM, Sigma), apocynin (100 μM, Sigma), GM-6001 (10 μM, Enzo Life Sciences), LY294002 (10 μM), cOmplete Protease Inhibitor Cocktail Tablets (1× dissolved in H2O, Roche), neutrophil elastase IV inhibitor (25 μM, Calbiochem), E-64 (1 μM, Sigma), 4-(2-Aminoethyl)benzenesulfonyl fluoride hydrochloride (AEBSF, 0.1 mM, Sigma), CMK (25 μM, Enzo Life Sciences), cytochalasin B (5 μM, Sigma) or chymostatin (10 μg/mL, Sigma)) or recombinant furin (100 ng/mL, maximal dose tolerated by the neutrophils, Peprotech) 30 minutes prior to addition of stimuli. In some experiments cell surface levels of B cell activating factor (BAFF, Biolegend) was analyzed according to the same protocol as described above. Monocytes and pDCs were detected using antibodies to CD14 (BioLegend) and CD304 (Miltenyi Biotech), respectively.

neutrophils = assay: ROS analysis in neutrophils (DHR123, OxyBURST); conditions: flow cytometry and fluorimetry, cell impermeable ROS dye
Akt and S6 = assay: S6 and Akt phosphorylation by flow cytometry; conditions: TLR7/8 activation with R848
Method: We next asked which pathway(s) were acting upstream of NADPH oxidase to induce FcgRIIA shedding. […] Phosphorylation of Akt and S6 was determined by flow cytometry upon TLR7/8 activation. The experiment was repeated four times; combined results were compared using paired t test (pS6, P=0.042; pAkt, P=0.037). […] To confirm the role for PI3K in TLR-mediated activation of ROS and subsequent shedding of FcgRIIA, neutrophils were incubated with the PI3K inhibitor LY294002 prior to addition of TLR agonist. Blocking PI3K signaling abrogated TLR-mediated ROS generation, phosphorylation of ncf1 at S345 as well as shedding of FcgRIIA. Briefly, neutrophils, pre-treated with inhibitors of PI3K (LY294002, 10 μM) or NADPH oxidase (DPI, 25 μM), were activated with R848 and analyzed for ROS generation by flow cytometry using DHR123. […] Additionally, neutrophils were pre-treated with the PI3K inhibitor LY294002 (10 μM) and analyzed for R848-mediated shedding of FcgRIIA by flow cytometry. […]
Neutrophils were activated by R848 for 15 minutes, fixed and permeabilized according to manufacturer's instructions (BioLegend), and incubated with a specific antibody recognizing phosphorylated S235/236 in S6 (Cell Signaling) or phosphorylated S473 in Akt (BD Biosciences) for 60 minutes. pS6 and pAkt levels were analyzed by flow cytometry and expressed as percent positive cells as compared to non-stimulated cells.

monocytes = assay: Monocyte phagocytosis of RNP-ICs; conditions: RNase exposure or R848 priming
Method: Monocytes were incubated with R848 or neutrophil supernatant prior to addition of RNP-ICs or beads. Phagocytosis was determined by flow cytometry.
SLE IgG, SmRNP and heat-aggregated IgG (HAGG) were labeled with Alexa-647 according to manufacturer's protocol (Life Technologies). Neutrophils, or PBMCs, from healthy individual were stimulated with different ICs, FITC-conjugated latex beads or zymosan (100 μg/mL, Life Technologies) for 30 minutes at 37° C. and immediately analyzed for phagocytosis. […] In some experiments, R848, at a concentration of 2 μg/mL, or neutrophil supernatant, was added 30 and 90 minutes before addition of the phagocytic stimuli, respectively.
Plasmacytoid dendritic cells were identified based on their expression of BDCA-4 (Miltenyi Biotech) and monocytes based on their expression of CD14 (Biolegend). In some experiments neutrophil supernatant (generated by incubating neutrophils with R848 for 90 minutes) were added to PBMCs with or without presence of the pan-protease inhibitor (1×), and expression of FcgRs and phagocytic ability analyzed in monocytes by flow cytometry as described above.

CCOCc1nc2c(N)nc3ccccc3c2n1CC(C)(C)O [R848]
neutrophil cell surface expression of FcgRIIA after stimulus (FcgRIIA on neutrophils; clone IV.3, vs non-stimulated): significantly reduced; also recorded: time- and dose-dependent
neutrophil surface levels of FcgRIIIB and FcgRI after stimulus (FcgRIIA on neutrophils; vs no R848): increased
cellular localization of ROS generation (neutrophils): induced intracellular generation of ROS, but no detectable extracellular ROS
levels of phosphorylated Akt and S6 (Akt and S6): induced increased levels of phosphorylated Akt and S6
monocyte phagocytosis of RNP-ICs (monocytes): not affected
